How the values were obtained:
[1] = tested on: chronic hepatitis C model mouse (Cre/loxP/HCV-MxCre Tg mouse); test: Treatment effect on hepatic fibrosis by histological staining of liver of model mouse; format: in vivo
Method: The expression of Cre in the liver of these mice was induced by intraperitoneal injection of polyinosinic-polycytidylic acid [Poly(I:C)] (purchased from GE Healthcare UK Ltd. (Buckinghamshire, England)). That is, 300 μL of poly(I:C) solution (1 mg/mL phosphate buffered saline [PBS]) was intraperitoneally injected, after lapse of 2 months from birth, […] 3 times at 48 hr intervals. HCV gene expression can be induced in almost all hepatocytes by performing this poly(I:C) administration operation once.
A CBP/β-catenin inhibitor was intraperitoneally administered to the CN2-29^(+/−)/MxCre^(+/−) mouse obtained in Example 1, and whether the CBP/β-catenin inhibitor has a treatment effect on hepatic fibrosis was examined by histological staining of the hepatic tissues collected from the model mouse.
A CBP/β-catenin inhibitor was dissolved in commercially available PBS (pH 7.6), and the pH was adjusted again to 7.6 with an aqueous sodium hydroxide solution to give a 40 mg/ml CBP/β-catenin inhibitor solution. This solution (250 μl) was filled in an osmotic pressure pump (ALZET mini-osmotic pump model 2006) and embedded subcutaneously in the back of mouse, whereby a CBP/β-catenin inhibitor was administered at 0.15 μl/hr for 42 days in a sustained manner. For the control group, commercially available PBS (pH7.6) was similarly filled in an osmotic pressure pump and administered as a vehicle by embedding same subcutaneously in the back of mouse.
Autopsy was performed on day 42 from the administration of the CBP/β-catenin inhibitory compound of (1), the liver was removed and histologically searched.
As for staining, the whole image of the tissue was stained and observed by hematoxylin-eosin staining (HE staining), and fiber was stained and observed by silver staining and Azan staining.
A tissue sample was fixed with 4% para-formaldehyde in PBS, embedded in paraffin and sliced (thickness 4 μm). The obtained section was subjected to hematoxylin-eosin staining (HE), silver staining and Azan staining.
Hematoxylin-eosin staining was performed according to the method described in a handbook of histopathological staining (Kiyoyuki Takahashi, Igaku-Shoin).
Silver staining was performed according to the method described in a handbook of histopathological staining (Kiyoyuki Takahashi, Igaku-Shoin).
Azan staining was performed according to the method described in a handbook of histopathological staining (Kiyoyuki Takahashi, Igaku-Shoin).

CBP/β-catenin = CBP/β-catenin (Homo sapiens, UniProt Q92793); settings: reporter assay of WO 2009/148192; cited from earlier work
Chain of CBP/β-catenin (Q92793 whole entry): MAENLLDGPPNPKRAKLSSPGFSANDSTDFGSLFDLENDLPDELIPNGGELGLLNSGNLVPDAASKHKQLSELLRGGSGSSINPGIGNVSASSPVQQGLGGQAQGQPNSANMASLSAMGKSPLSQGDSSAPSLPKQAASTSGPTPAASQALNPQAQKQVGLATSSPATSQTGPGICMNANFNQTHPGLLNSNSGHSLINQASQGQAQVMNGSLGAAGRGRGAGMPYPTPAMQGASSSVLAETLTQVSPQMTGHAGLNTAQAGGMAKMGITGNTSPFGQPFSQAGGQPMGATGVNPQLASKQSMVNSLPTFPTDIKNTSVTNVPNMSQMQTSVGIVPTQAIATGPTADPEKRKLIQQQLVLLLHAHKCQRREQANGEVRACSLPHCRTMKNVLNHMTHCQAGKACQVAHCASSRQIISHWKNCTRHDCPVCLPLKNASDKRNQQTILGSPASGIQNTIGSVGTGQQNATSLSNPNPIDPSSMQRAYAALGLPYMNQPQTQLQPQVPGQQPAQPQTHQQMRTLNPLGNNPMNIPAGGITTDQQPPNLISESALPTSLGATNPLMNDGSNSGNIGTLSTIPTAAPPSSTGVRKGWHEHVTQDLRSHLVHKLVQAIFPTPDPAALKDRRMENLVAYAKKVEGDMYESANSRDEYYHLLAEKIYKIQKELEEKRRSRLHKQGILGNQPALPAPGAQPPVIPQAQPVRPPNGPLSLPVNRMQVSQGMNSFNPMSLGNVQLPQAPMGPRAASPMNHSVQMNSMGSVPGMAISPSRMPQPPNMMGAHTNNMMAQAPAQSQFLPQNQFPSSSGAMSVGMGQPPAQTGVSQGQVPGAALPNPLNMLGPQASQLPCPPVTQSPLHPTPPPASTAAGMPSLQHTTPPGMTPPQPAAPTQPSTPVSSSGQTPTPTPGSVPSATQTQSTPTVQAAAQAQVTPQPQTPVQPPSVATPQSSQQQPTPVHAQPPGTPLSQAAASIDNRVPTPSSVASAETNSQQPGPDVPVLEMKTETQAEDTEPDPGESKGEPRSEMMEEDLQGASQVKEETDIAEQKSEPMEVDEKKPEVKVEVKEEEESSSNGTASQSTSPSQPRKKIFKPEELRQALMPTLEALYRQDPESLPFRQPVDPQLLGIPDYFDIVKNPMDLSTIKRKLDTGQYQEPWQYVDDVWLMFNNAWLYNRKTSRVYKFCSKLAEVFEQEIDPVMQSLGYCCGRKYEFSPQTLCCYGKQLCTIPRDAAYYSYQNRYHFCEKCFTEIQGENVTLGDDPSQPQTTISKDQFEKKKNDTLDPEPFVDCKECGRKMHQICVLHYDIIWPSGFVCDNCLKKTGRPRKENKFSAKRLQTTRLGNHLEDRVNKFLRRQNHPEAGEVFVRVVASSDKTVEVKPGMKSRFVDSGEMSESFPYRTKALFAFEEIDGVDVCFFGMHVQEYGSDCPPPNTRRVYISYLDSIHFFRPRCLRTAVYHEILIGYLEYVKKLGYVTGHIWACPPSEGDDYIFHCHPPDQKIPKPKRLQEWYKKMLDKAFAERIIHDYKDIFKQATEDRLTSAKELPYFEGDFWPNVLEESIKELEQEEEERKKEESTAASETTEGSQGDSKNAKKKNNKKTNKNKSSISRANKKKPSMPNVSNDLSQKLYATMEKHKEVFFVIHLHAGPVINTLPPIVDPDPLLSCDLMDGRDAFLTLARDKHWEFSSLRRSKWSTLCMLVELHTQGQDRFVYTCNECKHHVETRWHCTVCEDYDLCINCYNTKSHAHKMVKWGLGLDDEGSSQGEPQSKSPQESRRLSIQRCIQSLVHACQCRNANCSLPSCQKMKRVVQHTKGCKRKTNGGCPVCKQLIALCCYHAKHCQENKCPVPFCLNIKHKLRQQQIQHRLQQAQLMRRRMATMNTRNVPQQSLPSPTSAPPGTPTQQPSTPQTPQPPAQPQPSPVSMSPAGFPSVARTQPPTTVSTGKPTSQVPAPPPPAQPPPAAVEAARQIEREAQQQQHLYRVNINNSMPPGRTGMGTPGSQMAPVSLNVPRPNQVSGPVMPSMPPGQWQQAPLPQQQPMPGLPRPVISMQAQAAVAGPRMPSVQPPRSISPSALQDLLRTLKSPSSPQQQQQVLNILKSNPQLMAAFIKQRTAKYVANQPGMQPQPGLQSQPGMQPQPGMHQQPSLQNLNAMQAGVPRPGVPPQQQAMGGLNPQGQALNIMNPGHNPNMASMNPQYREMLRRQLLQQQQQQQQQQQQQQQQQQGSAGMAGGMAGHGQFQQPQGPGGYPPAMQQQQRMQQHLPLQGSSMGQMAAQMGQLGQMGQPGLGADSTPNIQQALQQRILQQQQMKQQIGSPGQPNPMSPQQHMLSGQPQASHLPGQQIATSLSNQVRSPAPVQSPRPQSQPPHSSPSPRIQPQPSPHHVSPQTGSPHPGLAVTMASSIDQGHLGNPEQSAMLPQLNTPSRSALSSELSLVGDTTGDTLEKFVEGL

SMILES: C[C@H]1C2N(C(=O)CN(C)N2C(=O)NCc2ccccc2)[C@@H](Cc2ccc(OP(=O)(O)O)cc2)C(=O)N1Cc1cccc2cccnc12 (stereo partly drawn) [CBP/β-catenin inhibitory compound, 4-(((6S,9S)-1-(benzylcarbamoyl)-2,9-dimethyl-4,7-dioxo-8-(quinolin-8-ylmethyl)octahydro-1H-pyrazino[2,1-c][1,2,4]triazin-6-yl)methyl)phenyl dihydrogen phosphate]
- hepatic lobule structure (defibrosing action) ([1]; CN2-29(+/-)/MxCre(+/-) mouse, 40 mg/ml solution by subcutaneous osmotic pump, 0.15 μl/hr for 42 days, HE, silver and Azan staining (FIG. 2-4)): improved hepatic lobule structure
- hepatocyte cord structure of liver tissue, hematoxylin-eosin staining ([1]; administration for 42 days, FIG. 2): normalized to take a cord-like form
- staining of reticular fiber, silver staining ([1]; administration for 42 days, FIG. 3): weakened and normalized
- staining of collagenous fibers, Azan staining ([1]; administration for 42 days, FIG. 4): normalized
- CBP/β-catenin inhibitory action (CBP/β-catenin): confirmed
